# In patent publication US9402842B2, “Synthesis and use of dual tyrosyl-DNA phosphodiesterase I (Tdp1)—topoisomerase I (Top1) inhibitors” (Purdue Research Foundation, priority 2012, dated 2016):
# Counter-ions that a name gives are not always drawn. Like-named read-outs stand apart in the source and are kept apart here.
# Columns and labels:
# [1] = system: OVCAR-3; assay: NCI screen cytotoxicity, ovarian OVCAR-3; conditions: read-out: Cytotoxicity (GI50 in μM) ovarian OVCAR-3; 50% growth inhibition
# [2] = system: MDA-MB-435; assay: NCI screen cytotoxicity, breast MDA-MB-435; conditions: read-out: Cytotoxicity (GI50 in μM) breast MDA-MB-435; 50% growth inhibition
# [3] = system: HOP-62; assay: NCI screen cytotoxicity, lung HOP-62; conditions: read-out: Cytotoxicity (GI50 in μM) lung HOP-62; 50% growth inhibition
# [4] = system: SF-539; assay: NCI screen cytotoxicity, CNS SF-539; conditions: read-out: Cytotoxicity (GI50 in μM) CNS SF-539; 50% growth inhibition
# [5] = system: UACC-62; assay: NCI screen cytotoxicity, melanoma UACC-62; conditions: read-out: Cytotoxicity (GI50 in μM) melanoma UACC-62; 50% growth inhibition
# [6] = system: DU-145; assay: NCI screen cytotoxicity, prostate DU-145; conditions: read-out: Cytotoxicity (GI50 in μM) prostate DU-145; 50% growth inhibition
# [7] = system: all human cancer cell lines successfully tested; assay: NCI screen, mean graph midpoint (MGM) for growth inhibition; format: cell-based; conditions: for GI50: read-out: MGM GI50
# [8] = system: SN12C; assay: NCI screen cytotoxicity, renal SN12C; conditions: read-out: Cytotoxicity (GI50 in μM) renal SN12C; 50% growth inhibition
# [9] = system: HCT-116; assay: NCI screen cytotoxicity, colon HCT-116; conditions: read-out: Cytotoxicity (GI50 in μM) colon HCT-116; 50% growth inhibition
# [10] = molecular target: human recombinant Top1 (Homo sapiens (Human), UniProt P11387); assay: Topoisomerase I-mediated DNA cleavage reactions; parameters: Top1 inhibition (text of part A): key to the marks not given beside the values; conditions: for Top1, compound-induced DNA cleavage due to Top1 inhibition: semiquantitative scale relative to 1 μM camptothecin (90) or MJ-III-65 (91)
# Sequence of human recombinant Top1 (P11387 whole entry): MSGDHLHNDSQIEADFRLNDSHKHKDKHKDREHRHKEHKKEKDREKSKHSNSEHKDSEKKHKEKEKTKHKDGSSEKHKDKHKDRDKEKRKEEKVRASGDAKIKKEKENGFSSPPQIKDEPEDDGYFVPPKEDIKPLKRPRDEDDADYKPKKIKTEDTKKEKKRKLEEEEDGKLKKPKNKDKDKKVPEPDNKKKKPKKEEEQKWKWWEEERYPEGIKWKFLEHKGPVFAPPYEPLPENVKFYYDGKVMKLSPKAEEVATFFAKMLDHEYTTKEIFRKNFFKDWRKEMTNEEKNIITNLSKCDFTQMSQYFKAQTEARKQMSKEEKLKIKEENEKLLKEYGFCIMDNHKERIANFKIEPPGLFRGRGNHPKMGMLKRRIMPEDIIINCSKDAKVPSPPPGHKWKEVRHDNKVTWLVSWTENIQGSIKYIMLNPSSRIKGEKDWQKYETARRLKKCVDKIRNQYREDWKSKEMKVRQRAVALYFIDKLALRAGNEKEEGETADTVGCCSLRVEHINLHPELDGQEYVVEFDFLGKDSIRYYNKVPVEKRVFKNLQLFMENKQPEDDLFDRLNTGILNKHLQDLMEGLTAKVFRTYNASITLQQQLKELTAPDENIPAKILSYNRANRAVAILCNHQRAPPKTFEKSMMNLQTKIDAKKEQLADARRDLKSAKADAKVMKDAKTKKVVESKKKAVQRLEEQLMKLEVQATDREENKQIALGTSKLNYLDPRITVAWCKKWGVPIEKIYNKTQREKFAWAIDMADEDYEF
# [11] = molecular target: recombinant human Tdp1 (Homo sapiens (Human), UniProt Q9NUW8); assay: Gel-based assay measuring the inhibition of recombinant Tdp1; format: biochemical; conditions: for IC50: read-out: Tdp1 (semiquantitative IC50 scale)
# Sequence of recombinant human Tdp1 (Q9NUW8 whole entry): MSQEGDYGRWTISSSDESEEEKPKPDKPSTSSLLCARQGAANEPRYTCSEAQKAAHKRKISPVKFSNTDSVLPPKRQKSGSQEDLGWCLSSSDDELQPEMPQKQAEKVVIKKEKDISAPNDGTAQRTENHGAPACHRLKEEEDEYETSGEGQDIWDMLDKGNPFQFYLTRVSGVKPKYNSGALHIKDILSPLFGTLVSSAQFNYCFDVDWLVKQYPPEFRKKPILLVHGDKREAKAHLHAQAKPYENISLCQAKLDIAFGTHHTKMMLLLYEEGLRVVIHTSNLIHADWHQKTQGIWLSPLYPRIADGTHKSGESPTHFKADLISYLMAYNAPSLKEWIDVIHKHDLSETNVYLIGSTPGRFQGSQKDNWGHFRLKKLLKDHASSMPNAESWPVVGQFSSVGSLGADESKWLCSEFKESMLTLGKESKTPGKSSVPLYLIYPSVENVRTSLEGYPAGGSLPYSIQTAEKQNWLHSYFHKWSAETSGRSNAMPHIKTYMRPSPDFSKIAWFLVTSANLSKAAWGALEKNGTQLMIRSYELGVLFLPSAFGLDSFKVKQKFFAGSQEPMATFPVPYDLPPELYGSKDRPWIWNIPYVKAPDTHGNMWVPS
# Description: Tdp1 inhibitory activity was measured by the drug's ability to inhibit the hydrolysis of the phosphodiester linkage between tyrosine and the 3′-end of the DNA substrate, and to prevent the generation of an oligonucleotide with a free 3′-phosphate (N14P). Therefore, the disappearance of the gel band for N14P indicated Tdp1 inhibition.
# Gel-based Assay Measuring the Inhibition of Recombinant Tdp1.
# A 5′-[^32P]-labeled single-stranded DNA oligonucleotide containing a 3′-phosphotyrosine (N14Y) was generated as described by Dexheimer et al. The DNA substrate was then incubated with 5 pM recombinant Tdp1 in the absence or presence of inhibitor for 15 min at room temperature in a buffer containing 50 mM Tris HCl, pH 7.5, 80 mM KCl, 2 mM EDTA, 1 mM DTT, 40 μg/ml BSA and 0.01% Tween-20. […] Gel images were scanned using a Typhoon 8600 (GE Healthcare) and densitometric analyses were performed using the ImageQuant software (GE Healthcare).
# [12] = system: single-stranded DNA substrate; assay: Surface plasmon resonance, binding to single-stranded DNA substrate; conditions: SPR
# [13] = Homo sapiens, read-out: MGM (μM)
# [14] = mean graph midpoint for growth inhibition of all human cancer cell lines successfully tested, read-out: MGM
Compound,GI50 [1] [µM],GI50 [2] [µM],GI50 [3] [µM],GI50 [5] [µM],GI50 [6] [µM],"IC50 [7, 13] [µM]",GI50 [8] [µM],GI50 [9] [µM],"Top1, compound-induced DNA cleavage due to Top1 inhibition [10]",further results
"CCOC(=O)CNc1ccc2c3c(n(CCCN)c(=O)c2c1)-c1ccccc1C3=O [Compound 40 of (B), Ethyl 2-[(6-(3-Aminopropyl)-5,11-dioxo-6,11-dihydro-5H-indeno[1,2-c]isoquinolin-3-yl)amino]acetate Hydrochloride]",3.12,3.05,0.93,2.25,1.68,1.69,1.75,0.44,–,GI50 [4]: 8.91 µM
"COC(=O)C(=O)Nc1ccc2c3c(n(CCCN)c(=O)c2c1)-c1ccccc1C3=O [Compound 22 of (B), Methyl 2-[(6-(3-Aminopropyl)-5,11-dioxo-6,11-dihydro-5H-indeno[1,2-c]isoquinolin-3-yl)amino]-2-oxoacetate]",–,–,–,–,–,1.86 ± 0.38,–,–,0,–
"COc1ccc2c(c1)-c1c(c3ccc([N+](=O)[O-])cc3c(=O)n1CCCN)C2=O.Cl [Compound 51 of (B), 6-(3-Aminopropyl)-5,6-dihydro-8-methoxy-3-nitro-5,11-dioxo-11H-indeno[1,2-c]isoquinoline Hydrochloride]",0.54,0.58,–,–,0.18,0.17 ± 0.017,0.15,0.06,++,GI50 [4]: 0.61 µM; IC50 [11]: 12000 to 37000 nM
"(6-Methyl-5,11-dioxo-6,11-dihydro-5H-indeno[1,2-c]isoquinolin-3-yl)-carbamic Acid [Compound 14 of (B)]",–,–,–,–,–,–,–,–,++,binding to the single-stranded DNA substrate [12]: did not bind
"COC(=O)CCCC(=O)Nc1ccc2c3c(n(CCCN)c(=O)c2c1)-c1ccccc1C3=O [Compound 25 of (B), Methyl 5-[(6-(3-Aminopropyl)-5,11-dioxo-6,11-dihydro-5H-indeno[1,2-c]isoquinolin-3-yl)amino]-5-oxopentanoate]",–,–,–,–,–,1.09,–,–,0,IC50 ([11]; determined by duplicate): 37000 to 111000 nM
"COc1ccc2c(c1)-c1c(c3ccc([N+](=O)[O-])cc3c(=O)n1CCCn1ccnc1)C2=O [Compound 52 of (B), 6-(3-(1H-Imidazol-1-yl)propyl)-8-methoxy-3-nitro-5H-indeno[1,2-c]isoquinoline-5,11(6H)-dione]",0.03,0.03,< 0.01,< 0.01,< 0.01,–,< 0.01,< 0.01,+++,"suppression of Top1-mediated DNA cleavage at high drug concentration ([10]; high concentration of 100 μM): slight suppression; Tdp1 (semiquantitative IC50 scale) [11]: (+); IC50 [7, 14]: 0.02 ± 0.0006 µM"
"Cl.NCCCn1c2c(c3ccc(NCC(=O)O)cc3c1=O)C(=O)c1ccccc1-2 [Compound 43 of (B), 2-((6-(3-Aminopropyl)-5,11-dioxo-6,11-dihydro-5H-indeno[1,2-c]isoquinolin-3-yl)amino)acetic Acid Hydrochloride]",1.6,1.14,0.65,0.72,1.51,0.87 ± 0.014,0.49,0.33,0,GI50 [4]: 1.79 µM; IC50 ([11]; determined by duplicate): 1000 to 12000 nM
NCCCn1c2c(c3ccc(N)cc3c1=O)C(=O)c1ccccc1-2 [Compound 62 of (B)],0.13,0.23,0.27,0.3,0.12,0.16,0.23,0.18,–,GI50 [4]: 0.34 µM
"O=C(O)C(F)(F)F.O=C(O)C(F)(F)F.O=C1c2ccccc2-c2c1c1ccccc1c(=O)n2CCCNCCCNCCCn1c2c(c3ccccc3c1=O)C(=O)c1ccccc1-2 [Compound 145, Bis-1,3-{(5,6-dihydro-5,11-diketo-11H-indeno[1,2-c]isoquinoline)-6-propyl-amino}propane Bis(trifluoroacetate)]",–,–,–,–,–,–,–,–,–,"Top1 inhibition (text of part A) ([10]; semiquantitative scale relative to 1 μM camptothecin): ++++; GI50 ([7]; mean graph midpoint, NCI cancer cell line screen): 394 nM"
O=C1c2ccccc2-c2c1c1ccc([N+](=O)[O-])cc1c(=O)n2CCCO [Compound 63 of (B)],0.87,1.97,–,0.31,0.43,0.89 ± 0.22,0.47,0.19,–,–
"N-(6-(5,11-Dioxo-5H-indeno[1,2-c]isoquinolin-6(11H)hexyl)-methanesulfonamide [Compound 84]",–,–,–,–,–,–,–,–,–,"Top1 inhibition (in words) [10]: active; IC50 [7, 14]: 0.25 ± 0.004 µM"
COc1ccc2c(c1)C(=O)c1c-2n(CCCN)c(=O)c2cc([N+](=O)[O-])ccc12 [Compound 54 of (B)],–,–,< 0.01,< 0.01,–,0.02 ± 0.0008,< 0.01,< 0.01,–,–
"COc1ccc2c(c1)C(=O)c1c-2n(CCCN)c(=O)c2cc(N)ccc12 [Compound 89 of (B), 3-Amino-6-(3-aminopropyl)-5,6-dihydro-9-methoxy-5,11-dioxo-11H-indeno[1,2-c]isoquinoline Dihydrochloride]",–,–,–,–,–,0.04,–,–,–,IC50 ([11]; determined by duplicate): 1000 to 12000 nM
"CS(=O)(=O)NCCCCCCCCCCCn1c2c(c3ccccc3c1=O)C(=O)c1ccccc1-2 [Compound 89, N-(11-(5,11-Dioxo-5H-indeno[1,2-c]isoquinolin-6(11H)-yl)undecyl)-methanesulfonamide]",–,–,–,–,–,–,–,–,++,GI50 ([7]; Homo sapiens): 40 nM
"COC(=O)CCCCC(=O)Nc1ccc2c3c(n(CCCN)c(=O)c2c1)-c1ccccc1C3=O [Compound 26 of (B), Methyl 6-[(6-(3-Aminopropyl)-5,11-dioxo-6,11-dihydro-5H-indeno[1,2-c]isoquinolin-3-yl)amino]-6-oxohexanoate]",–,–,–,–,–,2.34,–,–,(+),IC50 ([11]; determined by duplicate): 37000 to 111000 nM
